≈ marks a conversion by molar mass, not a printed value. Where “and” joins values, the source holds several entries; their conditions need not be identical. Equal values may be shown once. Entries after “also recorded” stand apart in the source; their conditions may differ.
Key:
[1] = system: surface-bound aminopeptidases of KB3.1 cells; experiment: Inhibition of ʟ-Leu-AMC hydrolysis (leucine aminopeptidases); assay type: cell-based; settings: at 50 and 110 µM substrate concentration
[2] = system: surface-bound aminopeptidases of KB3.1 cells; experiment: as above; assay type: cell-based; settings: for IC50, inhibition of ʟ-Leu-AMC hydrolysis: KB3.1 cells
Experimental: Hydrolysis of ʟ-Leu-AMC by the surface-bound aminopeptidases of KB3.1 cells was assayed based on the method from Weber and co-workers with slight modifications. KB3.1 cells were grown as monolayer cultures in Dulbecco's modified Eagle's medium (DMEM) containing 10% fetal calf serum at 37 °C in 24-well multidishes. After three days, the confluent monolayers were washed twice with phosphate buffered saline (PBS), and the reaction mixture (450 µL Hanks' buffer at pH 7.2 containing 50 or 100 µM substrate ʟ-Leu-AMC, compounds dissolved in 50 µL DMSO) was added. After being incubated at 23 °C for 30 min, 1 mL cold 0.2 M glycine buffer at pH 10.5 was added. The amount of hydrolyzed 7-amino-4-methylcoumarin (AMC) was measured in a Tecan Infinite M200 PRO fluorescence spectrophotometer (excitation and emission at λ = 365 and 440 nm, respectively). Bestatin [12] and DMSO were used as positive and negative control, respectively.

[3] = system: S. aureus DSM1104; experiment: Inhibition of biofilm formation; assay type: cell-based, Staphylococcus aureus; set-up: biofilm inhibition results from plate reader: reference not given here; settings: for biofilm inhibition results from plate reader: raw reading, replications 1-3; for inhibition of biofilm formation (in words): S. aureus
Experimental: The assay was performed in Falcon® 96-well flat bottom plates as previously described. […] Methanol was used as negative control, while tetracycline was used as positive control. All experiments were made in triplicates.

[4] = system: several Gram-positive bacteria (Bacillus subtilis, S. aureus, MRSA, Micrococcus luteus); set-up: method as in PMID 31310114; settings: B. subtilis, M. luteus; cited from earlier work
[5] = system: leucine aminopeptidase in HeLa S3 cells; set-up: method as in PMID 1620745; settings: 50 μM substrate concentration; cited from earlier work

| IC50, inhibition of ʟ-Leu-AMC hydrolysis [1] [µg/mL] | IC50, inhibition of ʟ-Leu-AMC hydrolysis ([2]; ʟ-Leu-AMC (50 µM)) [µg/mL] | IC50, inhibition of ʟ-Leu-AMC hydrolysis ([2]; ʟ-Leu-AMC (100 µM)) [µg/mL] | SMILES | ʟ-Leu-AMC inhibition assay (in words) [2] | biofilm inhibition results from plate reader ([3]; 8 µg/ml) | biofilm inhibition results from plate reader ([3]; 16 µg/ml) | biofilm inhibition results from plate reader ([3]; 32 µg/ml) | biofilm inhibition results from plate reader ([3]; 64 µg/ml) | biofilm inhibition results from plate reader ([3]; 128 µg/ml) | biofilm inhibition results from plate reader ([3]; 256 µg/ml) | inhibition of biofilm formation (in words) [3] | activity against Gram-positive bacteria (in words) [4] | IC50, similar assay against HeLa S3 cells [5] [µg/mL] |
| --- | --- | --- | --- | --- | --- | --- | --- | --- | --- | --- | --- | --- | --- |
| > 80 | 89.6 | 130.4 | CC1=C(CCCCCCCCCCCCCCCCCC/C=C(\CC(=O)O)C(=O)O)C(=O)OC1=O [Compound 3, (E)-2-(19-(4’-methyl-2’,5’-dioxo-2’,5’-dihydrofuran-3’-yl)nonadecylidene)butanedioic acid] | performed moderately | 2.88 and 3.631 and 3.132 | 2.837 and 3.385 and 3.2 | 2.875 and 3.534 and 3.458 | 3.373 and 3.63 and 3.041 | 3.752 and 3.854 and 3.496 | 1.742 and 2.419 and 2.26 | moderately inhibited; also recorded: weakly inhibit |  |  |
| > 80 | 153.2 | 225.3 | CC1=C(CCCCCCCCCCCCCCCCCCC(C(=O)O)C(CC(=O)O)C(=O)O)C(=O)OC1=O (stereo not drawn) [Compound 5, 21-(4’-methyl-2’,5’-dioxo-2’,5’-dihydrofuran-3’-yl)henicosane-1,2,3-tricarboxylic acid] |  | 3.444 and 2.956 and 3.704 | 3.633 and 3.438 and 3.879 | 4.452 and 3.838 and 3.757 | 3.708 and 3.627 and 3.623 | 3.871 and 3.836 and 3.597 | 3.822 and 3.87 and 3.988 | weakly inhibit |  |  |
|  | 71.1 | 102.3 | CC1=C(CCCCCCCCCCCCCCCCC/C=C(\C(=O)O)C(CC(=O)O)C(=O)O)C(=O)OC1=O (stereo not drawn) [Compound 4, (Z)-21-(4’-methyl-2’,5’-dioxo-2’,5’-dihydrofuran-3’-yl)henicos-3-ene-1,2,3-tricarboxylic acid] | performed moderately | 4.243 and 3.452 and 3.554 | 4.47 and 3.878 and 4.114 | 4.702 and 3.439 and 4.271 | 3.957 and 3.887 and 3.524 | 4.03 and 4.115 and 4.224 | 6 and 5.066 and 4.841 |  |  |  |
|  | 10.8 | 40.9 | CC(C)C[C@H](NC(=O)[C@@H](O)[C@H](N)Cc1ccccc1)C(=O)O [Bestatin, reference compound] |  |  |  |  |  |  |  |  |  |  |
|  | 138.4 |  | CC1=C(CCCCCCCCCCCCCCCCC2=C(C)C(=O)OC2=O)C(=O)OC1=O [Compound 6, tyromycin A] |  | 3.766 and 3.772 and 3.586 | 3.612 and 3.954 and 4.007 | 3.328 and 3.954 and 3.188 | 3.105 and 3.723 and 3.478 | 3.861 and 2.858 and 2.819 | 4.54 and 3.949 and 6 |  | active | 31 (≈ 69.4 µM) |
|  |  |  | CC1=C(CCCCCCCCCCCCCCCCCCCCC2=C(C)C(=O)OC2=O)C(=O)OC1=O [Compound 2, skeletocutin N] |  | 3.048 and 2.841 and 2.718 | 2.916 and 2.987 and 2.995 | 3.176 and 3.059 and 3.016 | 2.823 and 3.791 and 2.979 | 3.623 and 4.381 and 3.14 | 4.44 and 4.077 and 4.364 |  |  |  |
|  |  |  | CC1=C(CCCCCCCCCCCCCCCCCCC2=C(C)C(=O)OC2=O)C(=O)OC1=O [Compound 1, 1,18-bis[4′-methyl-2′,5′-dioxo-3′-furyl]octadecane] |  | 3.282 and 3.031 and 2.758 | 3.706 and 3.472 and 3.059 | 3.45 and 3.219 and 3.38 | 3.207 and 4.69 and 3.419 | 3.365 and 3.804 and 3.615 | 4.909 and 5.651 and 4.54 |  |  |  |
|  |  |  | CN(C)[C@@H]1C(O)=C(C(N)=O)C(=O)[C@@]2(O)C(O)=C3C(=O)c4c(O)cccc4[C@@](C)(O)[C@H]3C[C@@H]12 [Tetracycline, reference compound] |  |  |  | 1.107 and 1.315 and 1.404 and 1.155 and 0.918 and 0.791 | 0.885 and 0.917 and 0.836 and 0.83 and 0.627 and 0.95 | 0.622 and 0.527 and 0.478 and 0.693 and 0.655 and 0.765 | 0.462 and 0.414 and 0.487 and 0.644 and 0.444 and 0.498 |  |  |  |
